Like-named read-outs stand apart in the source and are kept apart here.
Columns and labels:
GPR84 = molecular target: T1, GPR84 (Homo sapiens, UniProt Q9NQS5); assay: GPR84 [35S]GTPγS binding assay; type: biochemical; details: 3,3′-diindolylmethane at EC80; membranes from stable cell line over expressing GPR84
T1 construct: expressed in transfected cells
Procedure, shortened: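 Antagonist-mode [35S]GTPγS binding on membranes from a GPR84-overexpressing stable line (GDP-preincubated), stimulated with 3,3′-diindolylmethane at EC80. Buffer 20 mM Tris pH 7.5, 5 mM MgCl2, 250 mM NaCl, saponin; 0.1 nM [35S]GTPγS, 90 min at room temperature, SPA bead read-out.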

human neutrophils = assay: Human neutrophil migration assay; type: cell-based; details: Homo sapiens, Neutrophil, read-out: Human neutrophil migration IC50
Method: The activity of GPR84 agonists and antagonists can therefore be assayed in a human neutrophil migration assay. The human neutrophil migration assay makes use of freshly isolated human neutrophils from buffy coats that are subsequently used in a functional chemotaxis assay setup. […] After 1 h of incubation at 37° C. and 5% CO2, the number of migrated neutrophils in the lower compartment can be quantified by measuring the ATP content using ATPlite™ Luminescence Assay System. A human buffy coat suspension is diluted with an equal volume of ice cold DPBS. 20 mL of the diluted buffy coat suspension is gently mixed with 4 mL of ACD buffer (140 mM citric acid, 200 mM sodium citrate and 220 mM dextrose). Then, 12 mL of a 6% dextran/0.9% NaCl solution (15 g dextran T2000 and 2.25 g NaCl dissolved in 250 mL H2O) is added to the mixture and the samples are inverted gently up to 20 times. The total volume is transferred to a new recipient and incubated at room temperature to allow sedimentation of red blood cells. The yellowish upper fraction is then transferred to a clean centrifugation tube and centrifuged for 12 min at 1300 rpm and 4° C. After centrifugation, the supernatant is discarded and the remaining cell pellet is rapidly resuspended in 12 mL of ice-cold H2O to perform a red blood cell lysis by osmotic burst. After 20 seconds, 4 mL of ice-cold 0.6 M KCl is added to restore salt concentration. Samples are mixed carefully and centrifuged for 6 min at 1300 rpm and 4° C. The supernatant is discarded and the red blood cell lysis procedure is repeated one more time. […] A neutrophil cell suspension of 8.9×10^6 cells per mL is prepared in chemotaxis buffer and 180 μL per well is plated in a 96-well V-bottom plate. 20 μL of test compound solution in chemotaxis buffer is added to the 180 μL cell suspension. The mixture is incubated at room temperature for 30 min with intermediate gentle resuspension of the cells after 15 min. […] After 1 h at 37° C., 5% CO2 in a humidified incubator, the upper plate of the Transwell® system is gently removed. […] After incubation, 270 μL of cell lysate is then transferred onto a white 96-well plate for quantification by a luminescence plate reader. The relative luminescent signal measured is considered linearly related to the number of cells having migrated from the upper compartment into the receiver well.

[1] = embelin at EC80 as chemotactic agent, 1 h at 37° C.

T1 sequence (Q9NQS5 whole entry): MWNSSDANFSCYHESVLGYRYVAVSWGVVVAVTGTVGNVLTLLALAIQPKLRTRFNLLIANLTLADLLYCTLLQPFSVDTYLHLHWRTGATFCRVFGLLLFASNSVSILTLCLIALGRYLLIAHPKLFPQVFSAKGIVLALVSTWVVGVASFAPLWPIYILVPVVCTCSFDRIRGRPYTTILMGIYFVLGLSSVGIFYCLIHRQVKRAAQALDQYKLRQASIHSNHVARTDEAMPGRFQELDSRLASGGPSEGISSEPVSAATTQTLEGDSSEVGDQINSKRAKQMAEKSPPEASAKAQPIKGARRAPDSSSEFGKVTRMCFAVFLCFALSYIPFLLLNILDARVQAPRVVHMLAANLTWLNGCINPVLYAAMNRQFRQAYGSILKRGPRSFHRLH

SMILES: COc1ccc2c(c1OC)CCn1c(NCC3CCCCO3)cc(=O)c(C)c1-2 (stereo not drawn) [Compound 16, 8,9-dimethoxy-1-methyl-4-(tetrahydropyran-2-ylmethylamino)-6,7-dihydrobenzo[a]quinolizin-2-one]
- IC50 (GPR84): 0.01 to 100 nM
- IC50 (human neutrophils; [1]): 100 to 500 nM

SMILES: COc1ccc2c(c1OC)CCn1c(NCC3COCCO3)cc(=O)c(C)c1-2 (stereo not drawn) [Compound 17, 4-(1,4-dioxan-2-ylmethylamino)-8,9-dimethoxy-1-methyl-6,7-dihydrobenzo[a]quinolizin-2-one]
- IC50 (GPR84): 0.01 to 100 nM
- IC50 (human neutrophils; [1]): 100 to 500 nM

SMILES: COc1ccc2c(c1OC)CCn1c(NCC3COCCO3)cc(=O)cc1-2 (stereo not drawn) [Compound 19, 4-(1,4-dioxan-2-ylmethylamino)-8,9-dimethoxy-6,7-dihydrobenzo[a]quinolizin-2-one]
- IC50 (GPR84): 500 to 1000 nM
- IC50 (human neutrophils; [1]): > 1000 nM

SMILES: COc1ccc2c(c1OC)CCn1c(NCC3CCCO3)cc(=O)cc1-2 (stereo not drawn) [Compound 20, 8,9-dimethoxy-4-(tetrahydrofuran-2-ylmethylamino)-6,7-dihydrobenzo[a]quinolizin-2-one]
- IC50 (GPR84): > 1000 nM
- IC50 (human neutrophils; [1]): > 1000 nM

SMILES: COc1c(O)ccc2c1CCn1c(NCC3COCCO3)cc(=O)cc1-2 (stereo not drawn) [Compound 21, 4-(1,4-dioxan-2-ylmethylamino)-9-hydroxy-8-methoxy-6,7-dihydrobenzo[a]quinolizin-2-one]
- IC50 (GPR84): > 1000 nM
- IC50 (human neutrophils; [1]): > 1000 nM

SMILES: COc1ccc2c(c1O)CCn1c(NCC3COCCO3)cc(=O)cc1-2 (stereo not drawn) [Compound 22, 4-(1,4-dioxan-2-ylmethylamino)-8-hydroxy-9-methoxy-6,7-dihydrobenzo[a]quinolizin-2-one]
- IC50 (GPR84): > 1000 nM
- IC50 (human neutrophils; [1]): > 1000 nM

SMILES: COc1c(OCC(F)F)ccc2c1CCn1c(NCC3COCCO3)cc(=O)c(C)c1-2 (stereo not drawn) [Compound 23, 9-(2,2-Difluoro-ethoxy)-4-[([1,4]dioxan-2-ylmethyl)-amino]-8-methoxy-1-methyl-6,7-dihydro-pyrido[2,1-a]isoquinolin-2-one]
- IC50 (GPR84): 0.01 to 100 nM
- IC50 (human neutrophils; 1 h): 0.01 to 100 nM

SMILES: COc1c(OCC(F)F)ccc2c1CCn1c(NCC3CCCO3)cc(=O)c(C)c1-2 (stereo not drawn) [Compound 24, 9-(2,2-Difluoro-ethoxy)-8-methoxy-1-methyl-4-[(tetrahydro-furan-2-ylmethyl)-amino]-6,7-dihydro-pyrido[2,1-a]isoquinolin-2-one]
- IC50 (GPR84): 0.01 to 100 nM
- IC50 (human neutrophils; [1]): 100 to 500 nM

SMILES: Cc1c2n(c(OC[C@@H]3COCCO3)cc1=O)CCc1cc(C#N)ccc1-2 [Compound 25, 4-[[(1S)-1,4-dioxan-2-yl]methoxy]-1-methyl-2-oxo-6,7-dihydrobenzo[a]quinolizine-9-carbonitrile]
- IC50 (GPR84): 500 to 1000 nM
- IC50 (human neutrophils; [1]): > 1000 nM

SMILES: CCc1c2n(c(NCC3CCCO3)cc1=O)CCc1cc(OCC(F)F)ccc1-2 (stereo not drawn) [Compound 26, 9-(2,2-difluoroethoxy)-1-ethyl-4-(tetrahydrofuran-2-ylmethylamino)-6,7-dihydrobenzo[a]quinolizin-2-one]
- IC50 (GPR84): 500 to 1000 nM
- IC50 (human neutrophils; [1]): 500 to 1000 nM

SMILES: CCc1c2n(c(NCC3CCCO3)cc1=O)CCc1cc(OCC(F)(F)F)ccc1-2 (stereo not drawn) [Compound 27, 1-ethyl-4-(tetrahydrofuran-2-ylmethylamino)-9-(2,2,2-trifluoroethoxy)-6,7-dihydrobenzo[a]quinolizin-2-one]
- IC50 (GPR84): 500 to 1000 nM
- IC50 (human neutrophils; [1]): 100 to 500 nM

SMILES: COc1ccc2c(c1OC)CCn1c(OCC3CCCO3)cc(=O)c(C)c1-2 (stereo not drawn) [Compound 28, 8,9-dimethoxy-1-methyl-4-(tetrahydrofuran-2-ylmethoxy)-6,7-dihydrobenzo[b]quinolizin-2-one]
- IC50 (GPR84): 0.01 to 100 nM
- IC50 (human neutrophils; [1]): 0.01 to 100 nM

SMILES: COc1ccc2c(c1OC)CCn1c(OCC3CCCCO3)cc(=O)c(C)c1-2 (stereo not drawn) [Compound 29, 8,9-dimethoxy-1-methyl-4-(tetrahydropyran-2-ylmethoxy)-6,7-dihydrobenzo[b]quinolizin-2-one]
- IC50 (GPR84): 0.01 to 100 nM
- IC50 (human neutrophils; [1]): 0.01 to 100 nM

SMILES: Cc1c2n(c(OC[C@@H]3COCCO3)cc1=O)CCc1cc(OCC3CCOCC3)ccc1-2 [Compound 30, 4-[[(2S)-1,4-dioxan-2-yl]methoxy]-1-methyl-9-(tetrahydropyran-4-ylmethoxy)-6,7-dihydrobenzo[b]quinolizin-2-one]
- IC50 (GPR84): 0.01 to 100 nM
- IC50 (human neutrophils; [1]): 0.01 to 100 nM

SMILES: Cc1c2n(c(OC[C@@H]3COCCO3)cc1=O)CCc1cc(OCc3ccccn3)ccc1-2 [Compound 31, 4-[[(2S)-1,4-dioxan-2-yl]methoxy]-1-methyl-9-(2-pyridylmethoxy)-6,7-dihydrobenzo[b]quinolizin-2-one]
- IC50 (GPR84): 0.01 to 100 nM
- IC50 (human neutrophils; [1]): 0.01 to 100 nM

SMILES: Cc1c2n(c(OC[C@@H]3COCCO3)cc1=O)CCc1cc(OCc3cccc(OC(F)(F)F)c3)ccc1-2 [Compound 32, 4-[[(2S)-1,4-dioxan-2-yl]methoxy]-1-methyl-9-[[3-(trifluoromethoxy)phenyl]methoxy]-6,7-dihydrobenzo[a]quinolizin-2-one]
- IC50 (GPR84): 0.01 to 100 nM
- IC50 (human neutrophils; [1]): 0.01 to 100 nM

SMILES: Cc1c2n(c(OC[C@@H]3COCCO3)cc1=O)CCc1cc(OCc3ccccc3)ccc1-2 [Compound 33, 9-benzyloxy-4-[[(2S)-1,4-dioxan-2-yl]methoxy]-1-methyl-6,7-dihydrobenzo[a]quinolizin-2-one]
- IC50 (GPR84): 0.01 to 100 nM
- IC50 (human neutrophils; [1]): 0.01 to 100 nM

SMILES: Cc1c2n(c(NC[C@@H]3COCCO3)cc1=O)CCc1cc(OCC(F)F)ccc1-2 [Compound 35, 9-(2,2-difluoroethoxy)-4-[[(2R)-1,4-dioxan-2-yl]methylamino]-1-methyl-6,7-dihydrobenzo[b]quinolizin-2-one]
- IC50 (GPR84): 100 to 500 nM
- IC50 (human neutrophils; [1]): 0.01 to 100 nM

SMILES: Cc1c2n(c(NC[C@@H]3COCCO3)cc1=O)CCc1cc(OCC(F)(F)F)ccc1-2 [Compound 36, 4-[[(2R)-1,4-dioxan-2-yl]methylamino]-1-mehtyl-9-(2,2,2-trifluoroethoxy)-6,7-dihydrobenzo[a]quinolizin-2-one]
- IC50 (GPR84): 0.01 to 100 nM
- IC50 (human neutrophils; [1]): 100 to 500 nM

SMILES: Cc1c2n(c(OC[C@@H]3COCCO3)cc1=O)CCc1cc(OS(=O)(=O)C(F)(F)F)ccc1-2 [Compound 37, [4-[[(2S)-1,4-dioxan-2-yl]methoxy]-1-methyl-2-oxo-6,7-dihydrobenzo[a]quinolizin-9-yl] trifluoromethanesulfonate]
- IC50 (GPR84): 0.01 to 100 nM
- IC50 (human neutrophils; [1]): 0.01 to 100 nM

SMILES: Cc1c2n(c(OC[C@@H]3COCCO3)cc1=O)CCc1cc(OCc3cnn(C)c3)ccc1-2 [Compound 38, 4-[[(2S)-1,4-dioxan-2-yl]methoxy]-1-methyl-9-[(1-methylpyrazol-4-yl)methoxy]-6,7-dihydrobenzo[a]quinolizin-2-one]
- IC50 (GPR84): 0.01 to 100 nM
- IC50 (human neutrophils; [1]): 100 to 500 nM

SMILES: Cc1c2n(c(OC[C@@H]3COCCO3)cc1=O)CCc1cc(C3=CCOCC3)ccc1-2 [Compound 39, 9-(3,6-dihydro-2H-pyran-4-yl)-4-[[(2S)-1,4-dioxan-2-yl]methoxy]-1-methyl-6,7-dihydrobenzo[a]quinolizin-2-one]
- IC50 (GPR84): 100 to 500 nM
- IC50 (human neutrophils; [1]): 0.01 to 100 nM

SMILES: CCn1cc(-c2ccc3c(c2)CCn2c(OC[C@@H]4COCCO4)cc(=O)c(C)c2-3)cn1 [Compound 40, 4-[[(2S)-1,4-dioxan-2-yl]methoxy]-9-(1-ethylpyrazol-4-yl)-1-methyl-6,7-dihydrobenzo[a]quinolizin-2-one]
- IC50 (GPR84): 0.01 to 100 nM
- IC50 (human neutrophils; 1 h): 0.01 to 100 nM

SMILES: Cc1c2n(c(OC[C@@H]3COCCO3)cc1=O)CCc1cc(C3CCOCC3)ccc1-2 [Compound 41, 4-[[(2S)-1,4-dioxan-2-yl]methoxy]-1-methyl-9-tetrahydropyran-4-yl-6,7-dihydrobenzo[a]quinolizin-2-one]
- IC50 (GPR84): 0.01 to 100 nM
- IC50 (human neutrophils; [1]): 0.01 to 100 nM

SMILES: Cc1c2n(c(NC[C@@H]3CCCO3)cc1=O)CCc1cc(OCC(F)(F)F)ccc1-2 [Compound 42, 1-methyl-4-[[(2S)-tetrahydrofuran-2-yl]methylamino]-9-(2,2,2-trifluoroethoxy)-6,7-dihydrobenzo[a]quinolizin-2-one]
- IC50 (GPR84): 0.01 to 100 nM
- IC50 (human neutrophils; [1]): 0.01 to 100 nM

SMILES: Cc1noc(COc2ccc3c(c2)CCn2c(OCC4CCCO4)cc(=O)c(C)c2-3)n1 (stereo not drawn) [Compound 43, 1-methyl-9-[(3-methyl-1,2,4-oxadiazol-5-yl)methoxy]-4-(tetrahydrofuran-2-ylmethoxy)-6,7-dihydrobenzo[a]quinolizin-2-one]
- IC50 (GPR84): 0.01 to 100 nM
- IC50 (human neutrophils; [1]): 0.01 to 100 nM

SMILES: Cc1noc(COc2ccc3c(c2)CCn2c(OCC4CCCCO4)cc(=O)c(C)c2-3)n1 (stereo not drawn) [Compound 44, 1-methyl-9-[(3-methyl-1,2,4-oxadiazol-5-yl)methoxy]-4-(tetrahydropyran-2-ylmethoxy)-6,7-dihydrobenzo[a]quinolizin-2-one]
- IC50 (GPR84): 0.01 to 100 nM
- IC50 (human neutrophils; [1]): 0.01 to 100 nM
